The values below come from patent US20140235520A1, “Perfume Compositions” (Givaudan Nederland Services B.V., priority 2005, published 2014).

Experiment [1] relates to Escherichia coli ATCC 10536. Put plainly: Standardised biofilm detachment assay (96 well microtitre plate, crystal violet OD540) in quarter strength GPC base Formula A. The experiment is classed as cell-based. Particulars: for Group (PDV class: active / non-active / antagonist to biofilm detachment): ingredient as 1 of 4 equal-weight ingredients (other 3 Group B), perfume 0.25% w/w in quarter strength GPC base Formula A, 20 min 21° C., flavour ingredients classed in toothpaste base.

Experiment [2] has as its system Escherichia coli ATCC 10536. Briefly: Biofilm detachment assay in quarter strength modified transparent silica toothpaste base (Formula B). In kind it is cell-based. The settings on record: positive control, Example 3. How it is done: The procedure described in example 1(a) was repeated but wherein flavour compositions comprising flavour ingredients from the oral care palette to be tested were prepared. The compositions were added to a modified transparent silica toothpaste base (diluted to quarter strength) together with de-ionised water to produce test mixtures with the composition as set out in Formula B below. [table] A percentage detachment value (PDV) for each test mixture was then calculated using the following formula: PDV=100−([OD540 for Test Mixture÷OD540 for Water Control]×100). […] The PDV scores were therefore adjusted to account for base influences on flavour behaviour and Detachment Index (DI) values quoted for each flavour composition.

With `COc1ccc(CC(C)C=O)cc1` (stereo not drawn) [2-methyl-3-[4-(methyoxy)phenyl]propanal], the “Group (PDV class: active / non-active / antagonist to biofilm detachment)” value in experiment [1] is recorded as “C (Group C materials that are antagonistic to biofilm detachment are defined as those having a PDV (as defined above) of less than or equal to 0)”.

Consider `CCC(=O)OC1CC2CC1C1C=CCC21` (stereo not drawn) [tricyclo[5.2.1.0̂{2,6}]dec-4-en-8-yl propanoate], for which, in experiment [1], the “Group (PDV class: active / non-active / antagonist to biofilm detachment)” value was “B (Group B materials that are non-active to biofilm detachment are defined as those having a PDV (as defined above) of less than 9 and greater than 0)”.

`CCCCCCCCCCCCOS(=O)(=O)[O-].[Na+]` [SLS, sodium lauryl sulphate, reference compound]: the PDV result is on record as “about 80%” in experiment [1] (positive control, 2% w/w in deionised water) and “about 80%” in experiment [2].

Consider `CC1(C)CCCC2(C)C1CCC1(C)OCCC12` (stereo not drawn) [3a,6,6,9a-tetramethyldodecahydronaphtho[2,1-{b}]furan], for which, in experiment [1], the “Group (PDV class: active / non-active / antagonist to biofilm detachment)” value is “B (Group B materials that are non-active to biofilm detachment are defined as those having a PDV (as defined above) of less than 9 and greater than 0)”.

In the case of `CC(=O)C1=C(C)C2CC3(C1)C(C)CCC3C2(C)C` (stereo not drawn) [1-(2,6,6,8-tetramethyltricyclo [5.3.1.0̂{1,5}]undec-8-en-9-yl)ethanone], the “Group (PDV class: active / non-active / antagonist to biofilm detachment)” value in experiment [1] is on record as “A (Group A materials that assist biofilm detachment are defined as those having a PDV (as defined above) of at least 9)”.
